Measured values as given in patent US6607893B2, “Diacylglycerol acyltransferase (DGAT) assay” (Warner-Lambert Company, priority 2000, dated 2003).
pIC50: −log10 of the molar value.

What was measured:
[1] = test system: diacylglycerol acyltransferase (DGAT); assay: DGAT enzyme assay, rat liver microsomes, [14C]triglyceride by TLC or 1-step extraction; settings: for Production of [14C]TAG: 0.8% solvent in reaction
Method: Rats were euthanized using CO2 affixation; their livers were immediately removed and placed in ice-cold microsome buffer (MC buffer) consisting of 125 mM sucrose, 3.0 mM imidazole, pH 7.4. Livers were cut into approximately 10 pieces, placed into 20 mL of ice cold MC buffer per liver and homogenized on ice in a glass Dounce power homogenizer using 10 up-and-down strokes. Homogenates were centrifuged at 1700 rpm in a Beckman JA-14 rotor for 10 minutes at 4° C. The supernatant was removed and placed on ice. The pellet was resuspended in 4.0 mL MC buffer per liver, rehomogenized as described above, and centrifuged at 1700 rpm in a Beckman JA-14 rotor for 10 minutes at 4° C. This supernatant was combined with the previous supernatant and centrifuged at 13,000 rpm in a Beckman JA-14 rotor for 20 minutes at 4° C. The supernatant was transferred to new tubes on ice, and the pellet was discarded. The supernate was centrifuged at 35,000 rpm in a Beckman Ti-70 rotor for 60 minutes at 4° C., and the resulting pellet, containing microsomal membranes, was resuspended in ice cold MC buffer using 17 strokes of a glass Dounce power homogenizer. Microsomal protein concentrations were determined by the Dc Protein Assay, and BSA was used to generate the standard curve. Microsomes were diluted to final protein concentration of 10 to 20 mg/mL. Microsomes were aliquoted into 1.0-mL tubes and stored in a liquid N2 cryofreezer.
DGAT Assay Buffer (DAB): 0.25 M sucrose, 1.0 mM EDTA, pH 8.0, 150 mM Tris-HCl, pH 7.4, and 1.25 mg/mL fatty acid free BSA.
Compounds were dissolved in DMSO and diluted to make 10× with DAB (10×compound) and kept at room temperature until the assay was performed.
Frozen aliquots of microsomes (10-20 mg/mL total protein) were thawed on ice and diluted to make a 5× working stock at the indicated concentrations with MC buffer and stored on ice until use.
The DGAT assay reaction was performed as follows: 5 μL of 10× compound was added to Perkin Elmer thin-walled reaction tubes followed by 35 μL of DGAT substrate mixture and vortexed. The reaction was started by the addition of 10 μL of the diluted 5× microsomes, vortexed, and incubated in a Perkin Elmer 9600 thermocycler for the indicated times and temperatures.
Reactions were stopped by the addition of 10 μL of 0.75N HCl. Samples were then spotted onto TLC plates and dried in a gravity convection oven at 70° C. for 30 minutes. Plates were developed in a 27×7.5×26 cm TLC chamber for 60 minutes at room temperature in 102 mL of isooctane:ethyl ether:acetic acid (75:25:2) for triglyceride determination. TLC plates were removed from the chamber, dried in a gravity convection oven at 70° C. for 30 minutes, wrapped in cellophane, and exposed to phosphorimager plates overnight. Phosphorimager plates were scanned on a phosphorimager and images were analyzed using ImageQuant software. A [^14C]glycerol trioleate standard was titrated onto TLC plates for mass determinations. All statistics were performed using Microsoft Excel's analysis software using a two-tailed t-test for means.
Reactions were stopped by the addition of 150 μL of AESSM followed by the addition of 300 μL of n-heptane. The mixture is pipetted 5× to mix and allowed to separate for 5 minutes at room temperature. The entire top phase, n-heptane phase, is removed to new tubes and spotted onto silica TLC plates and processed as described above (see TLC method) or placed into 5-mL scintillation vials containing scintillation cocktail and counted.

[2] = target: T1, diacylglycerol acyltransferase (DGAT); assay: 96-well DGAT mass screen assay; type: biochemical, rat; settings: 22° C., 60 minutes
T1 construct: IC50, DGAT activity; other: Group 1 rat liver microsome preparation; 1-Step/Scintillation; 37° C., 5 minutes; 1-Step/TLC; TLC; other: Group 2 rat liver microsome preparation; 1-Step/Scintillation
Method: Plates are loaded onto the robot carousel. […] The robot arm transfers the plate to multidrop 2 for the addition of 20 μL of diluted microsomes and shaken for 1.0 minute at room temperature. The robot arm transfers the plate back to the carousel where it incubates for 1.0 hour at room temperature. The robot arm transfers the plate to multidrop 3 for the addition of 150 μL of AESSM. The robot arm transfers the plate to the multimek to begin the extraction. The reaction volume is transferred to a 96-[…] polypropylene extraction plate on the multimek. The tips are washed 3×100 μL of DI H2O in a reagent reservoir with a continuous flow of DI H2O. The multimek then washes out the 96-well reaction plate with 3×100 μL of n-heptane and transfers the volume to the extraction plate. The multimek mixes the volume in the extraction plate 6×100 μL, and the plate sits for 10 seconds. The tips are washed 3×100 μL of DI H2O in a continuous flow reagent reservoir. One hundred microliters of the top n-heptane phase is transferred to a Flash plate. The robot arm transfers the Flash plate to a carousel fitted with a fume hood, which allows the n-heptane to evaporate for a minimum of 6 hours. The plates are transferred to a plate sealer to be sealed, transferred to the top count scintillation counter, and counted for 1.0 minute. Data are collected and reported to the Trillium based compound management system.

CCO [95% EtOH, ethanol] was tested, and the “DGAT activity increase above control” value ([1]; 0.5% ethanol) was 121%, the “Production of [14C]TAG” value [1] was 104±0.4 pmoles [14C]TAG/mg microbe pro and the “DGAT activity increase above controls” value ([1]; 4.0% ethanol) was 180%.
In the case of CC(C)=O [Acetone, acetone], the “DGAT activity increase above controls” value ([1]; 10.0% acetone) was 394%.
For ClC(Cl)Cl [Chloroform, chloroform], the “DGAT activity, % of control” value ([1]; 0.35% chloroform) was 955%.
C[S+](C)[O-] [DMSO] was tested, and the “effect on DGAT activity” value ([1]; 37° C. and 22° C.) was “decreases DGAT activity in a linear manner” and the “DMSO concentration at which DGAT assay showed significant changes” value ([1]; 37° C. and 22° C., p<0.05) was 4.5%.
For Cc1ccc2c(c1)Oc1ccc(NC(=O)c3ccc(O)cc3)cc1C(=O)N2C [N-(7,10-dimethyl-11-oxo-10,11-dihydro-dibenzo[b,f][1,4]oxazepin-2-yl)-4-hydroxy-benzamide], the pIC50 ([2]; manually extracted samples) was 5.77, the pIC50 ([2]; plate 1, 96-well mass screen extraction) was 5.82 and the pIC50 ([2]; plate 2, 96-well mass screen extraction) was 5.90. For the same molecule, the pIC50 ([1]; read-out: IC50, DGAT activity, Group 1 rat liver microsome preparation, 1-Step/Scintillation, 37° C., 5 minutes) was 5.78, the pIC50 ([1]; read-out: IC50, DGAT activity, Group 1 rat liver microsome preparation, 1-Step/TLC, 37° C., 5 minutes) was 6.02 and the pIC50 ([1]; read-out: IC50, DGAT activity, Group 1 rat liver microsome preparation, TLC, 37° C., 5 minutes) was 5.97. It also gave a pIC50 ([1]; read-out: IC50, DGAT activity, Group 2 rat liver microsome preparation, 1-Step/Scintillation, 37° C., 5 minutes) of 5.95, a pIC50 ([1]; read-out: IC50, DGAT activity, Group 2 rat liver microsome preparation, 1-Step/TLC, 37° C., 5 minutes) of 5.94 and a pIC50 ([1]; read-out: IC50, DGAT activity, Group 2 rat liver microsome preparation, TLC, 37° C., 5 minutes) of 5.82. For the same molecule, the pIC50 ([1]; read-out: IC50, DGAT activity, Group 3 rat liver microsome preparation, 1-Step/Scintillation, 37° C., 5 minutes) was 5.69, the pIC50 ([1]; read-out: IC50, DGAT activity, Group 3 rat liver microsome preparation, 1-Step/TLC, 37° C., 5 minutes) was 5.64 and the pIC50 ([1]; read-out: IC50, DGAT activity, Group 3 rat liver microsome preparation, TLC, 37° C., 5 minutes) was 5.76. It also gave a pIC50 ([1]; read-out: IC50, DGAT activity, Group 4 rat liver microsome preparation, 1-Step/Scintillation, 37° C., 5 minutes) of 5.96, a pIC50 ([1]; read-out: IC50, DGAT activity, Group 4 rat liver microsome preparation, 1-Step/TLC, 37° C., 5 minutes) of 6.14 and a pIC50 ([1]; read-out: IC50, DGAT activity, Group 4 rat liver microsome preparation, TLC, 37° C., 5 minutes) of 6.04. It also gave a pIC50 ([1]; read-out: IC50, DGAT inhibition, 0.8% ethanol and TLC) of 5.59, a pIC50 ([1]; read-out: IC50, DGAT inhibition, 0.8% ethanol extracted (1-step) and run on TLC) of 5.62 and a pIC50 ([1]; read-out: IC50, DGAT inhibition, […] acetone:chloroform (8:2) and TLC) of 5.70. The pIC50 ([1]; read-out: IC50, DGAT inhibition, […] acetone:chloroform (8:2) extracted (1-step) and run on TLC) was 5.60.
CCCCCCCC/C=C\CCCCCCCC(=O)OCCOCC(OCCO)C1OCC(OCCO)C1OCCO (stereo not drawn) [Tween 80] was tested, and the “Production of [14C]TAG” value [1] was 20±0.02 pmoles [14C]TAG/mg microbe pro.
